Assay results: ChEMBL document CHEMBL1146889, “Homo-cysteinyl peptide inhibitors of the L1 metallo-beta-lactamase, and SAR as determined by combinatorial library synthesis” (Bioorg Med Chem Lett, 2006)

How the values were obtained:
[1] = target: Beta-lactamase L1 (Stenotrophomonas maltophilia) (UniProt P52700); assay: Inhibition of Stenotrophomonas maltophilia L1 metallo beta lactamase at 200 uM
Beta-lactamase L1 = Beta-lactamase L1 (Stenotrophomonas maltophilia, UniProt P52700); assay: Inhibition of Stenotrophomonas maltophilia L1 metallo beta lactamase
Beta-lactamase L1, sequence (P52700 whole entry): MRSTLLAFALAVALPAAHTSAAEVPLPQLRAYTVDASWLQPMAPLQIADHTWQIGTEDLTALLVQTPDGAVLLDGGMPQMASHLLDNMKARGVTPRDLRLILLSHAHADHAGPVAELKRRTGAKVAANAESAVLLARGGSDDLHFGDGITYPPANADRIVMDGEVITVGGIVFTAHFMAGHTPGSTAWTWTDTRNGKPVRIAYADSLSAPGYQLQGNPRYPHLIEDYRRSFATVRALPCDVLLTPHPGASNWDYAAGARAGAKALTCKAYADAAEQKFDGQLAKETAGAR

Beta-lactamase L1 (Stenotrophomonas maltophilia), sequence (P52700 34-290 limits assumed): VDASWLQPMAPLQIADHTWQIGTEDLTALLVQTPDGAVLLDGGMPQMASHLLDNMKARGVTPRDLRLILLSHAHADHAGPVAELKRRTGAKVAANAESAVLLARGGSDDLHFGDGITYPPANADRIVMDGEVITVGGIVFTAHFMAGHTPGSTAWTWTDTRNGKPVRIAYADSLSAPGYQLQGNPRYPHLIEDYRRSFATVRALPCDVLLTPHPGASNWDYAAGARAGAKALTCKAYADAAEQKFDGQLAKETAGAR

SMILES | inhibition [1] [%] | Ki (Beta-lactamase L1) [nM]
O=C(COc1cccc2ccccc12)NC(CCS)C(=O)N[C@H](Cc1ccccc1)C(=O)O (stereo partly specified) | 81 | 290
O=C(NC(CCS)C(=O)N[C@H](Cc1ccccc1)C(=O)O)c1cc2cc(F)ccc2[nH]1 (stereo partly specified) | 81 | 12
Cc1cc(C(=O)NC(CCS)C(=O)N[C@H](Cc2ccccc2)C(=O)O)cc(C)c1OCc1ccccc1 (stereo partly specified) | 81 | 200
O=C(NC(CCS)C(=O)N[C@H](Cc1ccccc1)C(=O)O)c1cc2cc(O)ccc2[nH]1 (stereo partly specified) | 81 | 570

The remaining lines, values ahead:

inhibition [1] [%] | Ki (Beta-lactamase L1) [nM] | SMILES
81 | 390 | CC(=O)Nc1ccc(CC(=O)NC(CCS)C(=O)N[C@H](Cc2ccccc2)C(=O)O)cc1[N+](=O)[O-] (stereo partly specified)
81 | 350 | O=C(Cc1ccc(Br)cc1)NC(CCS)C(=O)N[C@H](Cc1ccccc1)C(=O)O (stereo partly specified)
81 | 1030 | O=C(Cc1cccc([N+](=O)[O-])c1)NC(CCS)C(=O)N[C@H](Cc1ccccc1)C(=O)O (stereo partly specified)
81 | 160 | O=C(NC(CCS)C(=O)N[C@H](Cc1ccccc1)C(=O)O)c1ccc(-c2ccccc2[N+](=O)[O-])o1 (stereo partly specified)
